In US20230192705A1, “SHP2 INHIBITORS, COMPOSITIONS AND USES THEREOF” (Betta Pharmaceuticals Co., Ltd, priority 2020, published 2023):
Like-named read-outs stand apart in the source and are kept apart here.

Tests used:
leukemia MV-4-11 cell = assay: Cell proliferation assay (CellTiter-Glo), MV-4-11; type: cell-based; settings: Homo sapiens, MV4-11, MV-4-11, 120 hrs, CTG, read-out: Compound on MV-4-11 cell IC50
Protocol: (§1) The effects of the compounds on the proliferation of leukemia MV-4-11 cell and lung cancer NCI-H358 cell were evaluated by in vitro cell test. The assay used in this study was the CELL TITER-GLO (CTG) luminescence assay, which can detect the number of living cells by quantitative determination of ATP. Because ATP is involved in a variety of enzymatic reactions in vivo and is an indicator of the metabolism of living cells, its content can directly reflects the number and state of cells. During the experiment, Celltiter-Glo™ reagent was added to the cell culture medium to measure the luminescence value. The luminescence value was proportional to the amount of ATP, which in turn was positively correlated with the number of living cells. Therefore, ATP content can be used to detect cell viability.
A bottle of MV-4-11 cells in logarithmic growth phase was taken, the cells were collected, centrifuged, resuspend, counted, and then inoculated into 96-well Microplate (Corning #3917), with 4000 cells inoculated in each well. The plates were placed in an incubator at 37° C. and 5% CO2 for 24 hrs culture, and the compounds of the invention were added for conducting.
(§2) An appropriate amount of the compound of the invention was taken for cell treatment, and the final concentration of the compound from high to low was 1000 nM, 333.3 nM, 111.1 nM, 37.04 nM, 12.35 nM, 4.115 nM, 1.372 nm, 0.4572 nM, 0.1524 nM, 0 nM, respectively. The orifice plate was cultured in an incubator at 37° C. and 5% CO2. Only adding medium without adding cell hole was set as blank group. Compound concentration of 0 nM group was zero control group.
After cultured for 120 hrs, MV-4-11 cells were added with 50 μL CellTiter-Glo® Luminescent cell viability assay solution in each well, gently shaken for 2 mins, and incubated at room temperature for 10 mins. The detection values of each well were read on the multi-functional microplate reader.
(§3) The inhibition rate is calculated according to the luminous value reading,
(§4) Inhibition rate %=(1−(administration group value−blank group value)/(control group value−blank group value)*100
(§5) The log (inhibitor) vs. response variable slope of GraphPad Prism was used to fit the dose-response curve and calculate the IC50 of compounds inhibiting cell proliferation.

[1] = In vitro metabolic stability in human liver microsome; type: in vitro ADME; settings: human liver microsomes
Protocol: (§6) 1900 mg MgCl2 was dissolved into a final volume of 400 mL ultra-pure water.
(§7) 17.42 g K2HPO4 and 13.65 g KH2PO4 were dissolved into a final volume of 1000 mL ultra-pure water, respectively. K2HPO4 and KH2PO4 were mixed to prepare 100 mM potassium phosphate (PBS) buffer. The pH value of the final solution was adjusted to pH 7.30±0.10.
(§8) Cold ACN (including 10 ng/mL Labetalol and 10 ng/mL Glibenclamid) was stored at 4° C.
(§9) Working Solution Preparation:
(§10) Verapamil (positive control) and test compound stock solution were diluted into a concentration of 50 μM and 200 μM respectively, using MeOH/ACN/H2O solution (1:1:2, v/v/v).
(§11) 1) 40 μL MgCl2 and 306 μL PBS were added to 96 plate wells (blank, compound wells, compounds without NADPH wells)
(§12) 2) 4 μL compound working solution was added to above wells (blank: 4 μL PBS buffer) (Note: the volume of DMSO in final incubation system ≤0.5%)
(§13) 3) 10 μL microsomes (20 mg/mL) was added in each well. The mixture was warmed up for 10 minutes at 37.0° C.
(§14) 4) 40 μL 10 mM NADPH working solution was added to start reaction. The total volume was 400 μL.
(§15) 5) Aliquots of 50 μL samples were taken from the reaction solution at 0, 5, 15, 45 min. The reaction solutions were stopped by the addition of 400 μL stop solution.
(§16) 6) The sampling plates were shaked for approx. 5 min.
(§17) 7) Samples were centrifuged at 3200 rcf for 10 min. then transferred 50 μL to a new plate dilute with 200 μL H2O for LC/MS/MS analysis.
(§18) Use equation of first order kinetics to calculate t1/2 and CL: […]
(§19) Where k represents elimination constant, which is calculated from a log linear plot of % Remaining versus time. t1/2 represents the half-life. Cprotein is the concentration of liver microsomes.

[2] = In vitro metabolic stability in rat liver microsome; type: in vitro ADME; settings: rat liver microsomes
Protocol: as §6, §7, §8, §9, §10, §11, §12, §13, §14, §15, §16, §17, §18, §19

[3] = tested on: lung cancer NCI-H358 cell; assay: Cell proliferation assay (CellTiter-Glo), NCI-H358; type: cell-based; settings: Homo sapiens, NCI-H358, 96 hrs, CTG, read-out: Compound on NCI-H358 cell IC50
Protocol: as §1
A bottle of NCI-H358 cells in logarithmic growth phase was taken, the cells were digested and resuspend, counted, and then the cell density was adjusted. After that, the cells were inoculated into a 96-well Ultra-Low Attachment Microplate (Corning #3474), 2000 cells were inoculated in each well, and the well plate was placed in an incubator at 37° C. and 5% CO2, and the compounds of the invention were added for conducting.
as §2
NCI-H358 cells were cultured for 96 hrs, then 50 μL CellTiter-Glo® Luminescent cell viability assay solution was added to each well, and the cells were gently shaken for 2 mins, and incubated at room temperature for 10 mins. The cell reaction system was transferred to 96-well Microplate (Corning #3917). The detection values of each well were read on the multi-functional microplate reader.
as §3, §4, §5

| Compound | IC50 (leukemia MV-4-11 cell; class symbols) | CLint Human [1] | CLint Rat [2] | IC50 (leukemia MV-4-11 cell; numeric values) | IC50 ([3]; numeric values) | IC50 ([3]; class symbols) |
| --- | --- | --- | --- | --- | --- | --- |
| Cn1c(N2CCC3(CC2)Cc2ccccc2[C@H]3N)nc2[nH]nc(C3(c4ccccc4)CC3)c2c1=O [Example 1] | ≤ 20 nM | 95.2 μL/min/mg proteins | 34.7 μL/min/mg proteins | – | – | – |
| N[C@@H]1c2ccccc2CC12CCN(c1nc3[nH]nc(C4(c5cccc(C(F)(F)F)c5)CC4)c3c(=O)[nH]1)CC2 [Example 8, (S)-6-(1-amino-1,3-dihydrospiro[indene-2,4′-piperidin]-1′-yl)-3-(1-(3-(trifluoromethyl)plienyl)cyclo-propyl)-1,5-dihydro-4H-pyrazolo[3,4-d]pyrimidin-4-one] | – | 9.2 μL/min/mg proteins | 11.6 μL/min/mg proteins | 6.1 nM | 1.7 nM | – |
| N[C@@H]1c2ccccc2CC12CCN(c1nc3[nH]nc(C4(c5ccccc5)CC4(F)F)c3c(=O)[nH]1)CC2 (stereo partly drawn) [Example 9, 6-((S)-1-amino-1,3-dihydrospiro[indene-2,4′-piperidin]-1′-yl)-3-(2,2-difluoro-1-phenylcyclopropyl)-1,5-dihydro-4H-pyrazolo[3,4-d]pyrimidin-4-one] | ≤ 20 nM | 16.9 μL/min/mg proteins | 10.5 μL/min/mg proteins | – | – | ≤ 20 nM |
| N[C@@H]1c2ccccc2CC12CCN(c1nc3[nH]nc(C4(c5cccs5)CC4)c3c(=O)[nH]1)CC2 [Example 24, (S)-6-(1-amino-1,3-dihydrospiro[indene-2,4′-piperidin]-1′-yl)-3-(1-(thiophen-2-yl)cyclopropyl)-1,5-dihydro-4H-pyrazolo[3,4-d]pyrimidin-4-one] | ≤ 20 nM | – | – | – | – | ≤ 20 nM |
| N[C@@H]1c2ccccc2CC12CCN(c1nc3[nH]nc(C4(c5ccccc5)CC4)c3c(=O)[nH]1)CC2 [Example 33] | ≤ 20 nM | 10.6 μL/min/mg proteins | 17.4 μL/min/mg proteins | – | – | ≤ 20 nM |
| N[C@@H]1c2ccccc2CC12CCN(c1nc3[nH]nc(C4(c5ccccc5)COC4)c3c(=O)[nH]1)CC2 [Example 96, (S)-6-(1-amino-1,3-dihydrospiro[indene-2,4′-piperidin]-1′-yl)-3-(3-phenyloxetan-3-yl)-1,5-dihydro-4H-pyrazolo[3,4-d]pyrimidin-4-one] | 20 to 60 nM | – | – | – | – | > 60 nM |
| N[C@@H]1c2ccccc2CC12CCN(c1nc3[nH]nc(C4(c5ccc(C(F)(F)F)cc5)CC4)c3c(=O)[nH]1)CC2 [Example 228, (S)-6-(1-amino-1,3-dihydrospiro[indene-2,4′-piperidin]-1′-yl)-3-(1-(4-(trifluoromethyl)phenyl)cyclo-propyl)-1,5-dihydro-4H-pyrazolo[3,4-d]pyrimidin-4-one] | 20 to 60 nM | 6.2 μL/min/mg proteins | 12.4 μL/min/mg proteins | – | – | 20 to 60 nM |
| Nc1ccc(C2(c3n[nH]c4nc(N5CCC6(CC5)Cc5ccccc5[C@H]6N)[nH]c(=O)c34)CC2)cc1 [Example 230, (S)-6-(1-amino-1,3-dihydrospiro[indene-2,4′-piperidin]-1′-yl)-3-(1-(4-aminophenyl)cyclopropyl)-1,5-dihydro-4H-pyrazolo[3,4-d]pyrimidin-4-one] | – | 9.2 μL/min/mg proteins | 3.2 μL/min/mg proteins | – | – | – |
| N[C@@H]1c2ccccc2CC12CCN(c1nc3[nH]nc(C4(c5ccc(O)cc5)CC4)c3c(=O)[nH]1)CC2 [Example 234, (S)-6-(1-amino-1,3-dihydrospiro[indene-2,4′-piperidin]-1′-yl)-3-(1-(4-hydroxyphenyl)cyclopropyl)-1,5-dihydro-4H-pyrazolo[3,4-d]pyrimidin-4-one] | – | 10.4 μL/min/mg proteins | 6.6 μL/min/mg proteins | – | – | – |
| N#Cc1ccc(C2(c3n[nH]c4nc(N5CCC6(CC5)Cc5ccccc5[C@H]6N)[nH]c(=O)c34)CC2)cc1 [Example 237, (S)-4-(1-(6-(1-amino-1,3-dihydrospiro[indene-2,4′-piperidin]-1′-yl)-4-oxo-4,5-dihydro-1H-pyrazolo[3,4-d]pyrimidin-3-yl)cyclopropyl)benzonitrile] | ≤ 20 nM | – | – | – | – | ≤ 20 nM |

The remaining lines, values ahead:

| IC50 (leukemia MV-4-11 cell; class symbols) | CLint Human [1] | CLint Rat [2] | IC50 (leukemia MV-4-11 cell; numeric values) | IC50 ([3]; numeric values) | IC50 ([3]; class symbols) | Compound |
| --- | --- | --- | --- | --- | --- | --- |
| – | 19.5 μL/min/mg proteins | 11.2 μL/min/mg proteins | 6.5 nM | 8.6 nM | – | N[C@@H]1c2ccccc2CC12CCN(c1nc3[nH]nc(C4(c5cccc(F)c5)CC4)c3c(=O)[nH]1)CC2 [Example 6, (S)-6-(1-amino-1,3-dihydrospiro[indene-2,4′-piperidin]-1′-yl)-3-(1-(3-fluorophenyl)cyclopropyl)-1,5-dihydro-4H-pyrazolo[3,4-d]pyrimidin-4-one] |
| – | 8.6 μL/min/mg proteins | 6.6 μL/min/mg proteins | 1.2 nM | 2.1 nM | – | N[C@@H]1c2ccccc2CC12CCN(c1nc3[nH]nc(C4(c5ccc(F)cc5)CC4)c3c(=O)[nH]1)CC2 [Example 11, (S)-6-(1-amino-1,3-dihydrospiro[indene-2,4′-piperidin]-1′-yl)-3-(1-(4-fluorophenyl)cyclopropyl)-1,5-dihydro-4H-pyrazolo[3,4-d]pyrimidin-4-one] |
| ≤ 20 nM | 9.8 μL/min/mg proteins | 14.3 μL/min/mg proteins | – | – | ≤ 20 nM | N[C@@H]1c2ccccc2CC12CCN(c1nc3[nH]nc(C4(c5ccc6c(c5)OC(F)(F)O6)CC4)c3c(=O)[nH]1)CC2 [Example 13, (S)-6-(1-amino-1,3-dihydrospiro[indene-2,4′-piperidin]-1′-yl)-3-(1-(2,2-difluorobenzo[d][1,3]dioxol-5-yl)cyclopropyl)-1,5-dihydro-4H-pyrazolo[3,4-d]pyrimidin-4-one] |
| ≤ 20 nM | 10.4 μL/min/mg proteins | 3.8 μL/min/mg proteins | – | – | ≤ 20 nM | N[C@@H]1c2ccccc2CC12CCN(c1nc3[nH]nc(C4(c5ccc(Cl)c(Cl)c5)CC4)c3c(=O)[nH]1)CC2 [Example 21, (S)-6-(1-amino-1,3-dihydrospiro[indene-2,4′-piperidin]-1′-yl)-3-(1-(3,4-dichlorophenyl)cyclopropyl)-1,5-dihydro-4H-pyrazolo[3,4-d]pyrimidin-4-one] |
| ≤ 20 nM | 16.5 μL/min/mg proteins | 19.1 μL/min/mg proteins | – | – | ≤ 20 nM | N[C@@H]1c2ccccc2CC12CCN(c1nc3[nH]nc(C4(c5ccc6c(c5)OCO6)CC4)c3c(=O)[nH]1)CC2 [Example 34, (S)-6-(1-amino-1,3-dihydrospiro[indene-2,4′-piperidin]-1′-yl)-3-(1-(benzo[d][1,3]dioxol-5-yl)cyclopropyl)-1,5-dihydro-4H-pyrazolo[3,4-d]pyrimidin-4-one] |
